These results are taken from US20060134779A1, “Modulation of cell intrinsic strain to control cell modulus, matrix synthesis, secretion, organization, material properties and remodeling of tissue engineered constructs” (priority 2004, published 2006).

In assay [1] the test system is gel matrix. Briefly: Gel matrix contraction in a culture system. In kind it is cell-based.
Assay [2] deals with cell modulus. The settings on record: cited from earlier work.
The subject of assay [3] is elastin. The assay can be described thus: Quantitative RT-PCR gene expression in BATs: elastin. In kind it is cell-based, human. The method, then: (§1) Primary human tendon internal fibroblasts (HTIFs) were isolated from discarded human tendon tissue as described previously (Banes et al., J. Ortho Res., 6, 73-82, 1988). HTIFs from passage 2 to 4 were used in this study. BATs™ were fabricated at a cell density of 2 million cells/ml collagen gel suspension (Vitrogen). Cells were incubated at 37° C. for 24 h before addition of 100 pM IL-1β and inhibitors. BAT™ images were recorded with a scanner and automated imaging software, ScanFlex™ (Flexcell International Corp.). Medium was refreshed every 24 h. On day 5, BATs™ were collected, total RNA extracted with an RNeasy mini kit (QIAGen), cDNA synthesized with SuperScriptII (Invitrogen) and quantitative PCR carried out using a quantitative PCR kit from Ambion. The PCR products were separated on 2% agarose gels and the bands were quantitated in Photoshop. The elasticity of BATs™ was tested on day 5. BATs™ were subjected to a maximum stretch (20% elongation, 1 Hz for 1 h) and the BAT™ images were recorded for 24 h after stretch.

Assay [4] concerns Collagen type I. The assay can be described thus: Quantitative RT-PCR gene expression in BATs: Collagen type I. In kind it is cell-based, human. The note with it: 100 pM IL-1β, day 5. The method, then: as §1
Assay [5] has as its system MMPs 1, 2, 3. Briefly: Quantitative RT-PCR gene expression in BATs: MMPs. In kind it is cell-based, human. The settings on record: 100 pM IL-1β, day 5. The method, then:
as §1

For assay [6], the system named is human tendon internal fibroblasts (HTIFs). The assay can be described thus: Young's modulus of HTIFs by micropipette aspiration. In kind it is cell-based. The settings on record: young and adult patients (FIG. 13). The method, then: (§2) Primary HTIFs were isolated after surgery from discarded human tendon tissue as described previously (Banes et al., J. Ortho Res., 6, 73-82, 1988). HTIFs from passage 2 to 4 were used in this study. HTIFs were allowed to attach and spread for 24 h before addition of 100 pM IL-1β. Medium was refreshed every 24 h. On day 5, cells were collected for cell modulus measurement and gene expression analysis. Young's modulus of HTIFs was measured by aspirating a cell into the bore of a calibrated micropipette with a calibrated vacuum source. The cell-aspiration process was videotaped for subsequent data analysis to calculate the pipette bore size, the steady state pressure required to aspirate a segment of a cell into the pipette bore and the time constant for aspiration. Cytoskeleton change was monitored by rhodamine-phalloidin staining. The expression levels of β-actin was determined by quantitative RT-PCR. Total RNA was extracted with an RNeasy mini kit (QIAGen), cDNA was synthesized with SuperScriptII (Invitrogen) and quantitative PCR was carried out using 18S rRNA as an internal control (Ambion). The PCR products were separated on 2% agarose gels and pixel intensity of the bands was quantitated in Photoshop.

The subject of assay [7] is β-actin. The assay can be described thus: β-actin expression by quantitative RT-PCR in HTIFs. In kind it is cell-based, human. The note with it: for reduction of the message of β-actin: 24 h post addition. The method, then: as §2, with “On day 5, cells were collected for cell modulus measurement and gene expression analysis.” left out
Assay [8] deals with human tendon internal fibroblast (HTIF)-populated bioartificial tendons (BATs). The assay can be described thus: Contraction of HTIF-populated BATs (scanner imaging). In kind it is cell-based. The note with it: 100 pM IL-1β, 24 h post addition. The method, then: as §1
Assay [9] deals with β-actin. The assay can be described thus: Cytoskeleton change by rhodamine-phalloidin staining in HTIFs. In kind it is cell-based, human. The settings on record: 100 pM IL-1β. The method, then:
as §2

Assay [10] relates to human tendon internal fibroblast (HTIF)-populated bioartificial tendons (BATs). Briefly: Elasticity of BATs: length recovery after maximum stretch. In kind it is cell-based. The note with it: 100 pM IL-1β.
Description: In order to find a better therapeutic method for tendon/ligament repair and/or replacement, several in vitro models for engineered tendon have been developed recently (Awad et al., J. Biomed. Mater Res., 51(2), 233-240, 2000). One of them is a BioArtificial Tendon (BAT™) model system utilizing tenocyte-populated molded collagen gels (Awad et al., J. Biomed. Mater Res., 51(2), 233-240, 2000). This 3D BAT™ system allows the testing of tenocyte responses to drugs, cytokines and mechanical loading but is too weak to replace conventional grafts materials. In an attempt to modulate the material properties of the cell-gel composite, the influence of IL-1β on the elasticity of human tendon internal fibroblast (HTIF)-populated bioartificial tendons (BATs™) was investigated. IL-1β has been reported to increase the expression of matrix metalloproteinases (MMPs) and elastin. It was hypothesized that IL-1 might increase the elasticity of BATs™ by up-regulating the expression of elastin and down-regulating matrix protein (Collagen type I) expression. Gene expression was quantified with quantitative RT-PCR. The elasticity of BATs™ was determined by length recovery after stretch. The influence of IL-1β on the actin cytoskeleton and integrin attachment to matrix in BATs™ also was tested +/−cytochalasin D or GRGDTP, respectively.
as §1, with “BATs™ were fabricated at a cell density of 2 million cells/ml collagen gel suspension (Vitrogen). Cells were incubated at 37° C. for 24 h before addition of 100 pM IL-1β and inhibitors.” left out, “Medium was refreshed every 24 h.” left out, “The elasticity of BATs™ was tested on day 5.” left out

In assay [11] the test system is human tendon internal fibroblast (HTIF) populated bioartificial tendons (BATs). Briefly: Material properties (modulus) of HTIF-populated BATs. In kind it is cell-based.
Where [12] appears, read: 20% elongation, 1 Hz for 1 h, day 5.

Entries after “also recorded” stand apart in the source; their conditions may differ.

As for `Nc1ncnc2c1ncn2[C@@H]1O[C@H](COP(=O)(O)OP(=O)(O)OP(=O)(O)O)[C@@H](O)[C@H]1O` [ATP, adenosine triphosphate], the gel matrix contraction entry in assay [1] is reported as “retard”.

Take `C=C1[C@@H](C)[C@H]2[C@H](Cc3ccccc3)NC(=O)[C@]23[C@H](OC(C)=O)/C=C/[C@@](C)(O)C(=O)[C@@H](C)C/C=C/[C@H]3[C@@H]1O` [cytochalasin D]: the “decrease of cell modulus” value in assay [2] is “up to three fold”.

GRGDTP: the “elastin mRNA level” value in [3] (100 μg/ml GRGDTP alone) is on record as “did not affect”. Besides, the “stimulation of elastin mRNA by IL-1” value in assay [3] (100 μg/ml GRGDTP with 100 pM IL-1β) is “reduced”.

For the molecule interleukin-1beta [IL-1β], in assay [4], the “expression of Collagen type I” value is “down-regulated”. In addition, the “expression of MMPs 1, 2, 3” value in [5] was “up-regulated; also recorded: up-regulation”. Also, the expression of elastin result in assay [3] (100 pM IL-1β, day 5) was “up-regulated”. The “cell modulus of monolayer HTIFs” value in assay [6] was “reduced”. Further, the “reduction of the message of β-actin” value is listed as “more than 50%” in assay [7] (100 pM IL-1β, 2D cultures) and “more than 50%” in [7] (100 pM IL-1β, 3D cultures). Besides, the “message level of β-actin” value in assay [7] (100 pM IL-1β, day 3, 3D cultures) is listed as “returned to normal”. Besides, in assay [7] (2D cultures, days 1 and 3 (FIG. 14A)), the “expression of β-actin” value is recorded as “reduced”. For the same molecule, the “contraction of BATs” value in assay [8] is on record as “reduced”. Besides, the “cells with cytoskeletal structure disrupted” value in [9] (2D cultures) is “about 20%”. The “protein level of β-actin” value was “further reduced” in assay [9] (2D cultures, day 3); “mostly recovered” in [9] (2D cultures, day 5); “down regulated” in assay [9] (rhodamine-phalloidin staining). For the same molecule, the “increase of intercellular space at the perpendicular direction of BATs” value in [9] (3D BATs, days 1 and 3) was “more than 100%”. Further, in [9] (3D bioartificial tendons, day 5), the “fluorescence intensity of rhodamine-phalloidin staining compared to control” value is “much lower”. Further, the “elasticity of BATs” value in assay [10] (tested on day 5) was “increased”. Also, the “survival of maximum stretch” value in assay [10] (setting [12]) is “survived”. Besides, in assay [10] (setting [12]), the “time for elongated BATs to recover to original length post stretch” value stood at 8 h. Further, the “modulus of BATs” value in [11] was “reduced”.
